Reference: patent US8927717B1, “Thiochromeno[2,3-c]quinolin-12-one derivatives, preparation method and application thereof” (National Defense Medical Center, priority 2014, dated 2015)

Assays:
Assay type in all cases: cell-based
[1] = test system: NCI-H522
[2] = test system: A549/ATCC
[3] = test system: T-47D
[4] = test system: MOLT-4
[5] = test system: NCI/ADR-RES
[6] = test system: TK-10
[7] = test system: UO-31
[8] = test system: HS 578T
[9] = test system: MALME-3M
[10] = test system: NCI-H23
[11] = test system: DU-145
[12] = test system: SNB-19
[13] = test system: MDA-MB-231/ATCC
[14] = test system: OVCAR-5
[15] = test system: MDA-MB-486
[16] = test system: 60 cancer cell lines; assay: NCI 60-cell screen, SRB, whole panel (mean, delta, range)
[17] = test system: HOP-62
[18] = test system: OVCAR-8
[19] = test system: LOX IMVI; details: LOX IMVI, five dose
[20] = test system: SF-295
[21] = test system: SR
[22] = test system: MCF7
[23] = test system: RXF 393; details: Renal cancer; 10^−5 molar; 48 hours; SRB
[24] = test system: K-562
[25] = test system: SW-620
[26] = test system: U251; details: U251, five dose
[27] = test system: KM12; assay: cells
[28] = test system: UACC-62
[29] = test system: SNB-75
[30] = test system: SK-MEL-28
[31] = test system: ACHN
[32] = test system: A498
[33] = test system: HCT-15
[34] = test system: HT29
[35] = test system: SN12C
[36] = test system: 786-0
[37] = test system: SF-268
[38] = test system: NCI-H226
[39] = test system: MDA-MB-435
[40] = Homo sapiens, NCI-H522, five dose
[41] = Non-small cell lung cancer, 10^−5 molar, 48 hours, SRB
[42] = Homo sapiens, A549/ATCC, five dose
[43] = Breast cancer, 10^−5 molar, 48 hours, SRB
[44] = Leukemia, 10^−5 molar, 48 hours, SRB
[45] = Ovarian cancer, 10^−5 molar, 48 hours, SRB
[46] = Renal cancer, 10^−5 molar, 48 hours, SRB
[47] = Homo sapiens, MALME-3M, five dose
[48] = Melanoma, 10^−5 molar, 48 hours, SRB
[49] = Homo sapiens, NCI-H23, five dose
[50] = CNS cancer, 10^−5 molar, 48 hours, SRB
[51] = Colon cancer, 10^−5 molar, 48 hours, SRB
[52] = Homo sapiens, SW-620, five dose
[53] = Homo sapiens, SNB-75, five dose
[54] = Homo sapiens, SK-MEL-28, five dose
[55] = Homo sapiens, HCT-15, five dose
[56] = Homo sapiens, HT-29, HT29, five dose

Compound: NCCNc1nc2ccccc2c2c(=O)c3cc(Cl)ccc3sc12 [Compound N14, 6-((2-Aminoethyl)amino)-10-chloro-12H-thiochromeno[2,3-c]quinolin-12-one]
- GI50 [1, 40]: 1.86 µM
- LC50 (concentration causing 50% net cell kill) [1, 40]: 6.92 µM
- TGI ([1]; NCI-H522, five dose): 3.59 µM
- Growth percent NCI-H522 [1, 41]: −66.59%
- TGI ([2]; A549/ATCC, five dose): 3.50 µM
- GI50 [2, 42]: 1.83 µM
- LC50 [2, 42]: 6.68 µM
- Growth percent A549/ATCC [2, 41]: −88.76%
- Growth percent T-47D [3, 43]: −82.45%
- GI50 ([3]; Homo sapiens, T47D, T-47D, five dose): 1.56 µM
- TGI ([3]; T-47D, five dose): 3.37 µM
- GI50 ([4]; Homo sapiens, MOLT-4, five dose): 2.02 µM
- CC50 ([4]; Homo sapiens, MOLT-4, five dose, read-out: LC50 (the source's name)): 7.77 µM
- Growth percent MOLT-4 [4, 44]: −58.82%
- TGI ([4]; MOLT-4, five dose): 3.96 µM
- GI50 ([5]; Homo sapiens, NCI/ADR-RES, five dose): 1.88 µM
- TGI ([5]; NCI/ADR-RES, five dose): 3.67 µM
- Growth percent NCI/ADR-RES [5, 45]: −42.68%
- GI50 ([6]; Homo sapiens, TK-10, five dose): 2.06 µM
- CC50 ([6]; Homo sapiens, TK-10, five dose, read-out: LC50 (the source's name)): 6.21 µM
- Growth percent TK-10 [6, 46]: −28.04%
- TGI ([6]; TK-10, five dose): 3.58 µM
- GI50 ([7]; Homo sapiens, UO-31, five dose): 1.29 µM
- CC50 ([7]; Homo sapiens, UO-31, five dose, read-out: LC50 (the source's name)): 5.96 µM
- Growth percent UO-31 [7, 46]: −92.77%
- TGI ([7]; UO-31, five dose): 2.78 µM
- Growth percent HS 578T [8, 43]: 50.82%
- TGI ([8]; HS 578T, five dose): 3.90 µM
- GI50 ([8]; Homo sapiens, HS 578T, five dose): 1.69 µM
- GI50 [9, 47]: 1.98 µM
- LC50 [9, 47]: 7.93 µM
- TGI ([9]; MALME-3M, five dose): 3.96 µM
- Growth percent MALME-3M [9, 48]: −48.42%
- GI50 [10, 49]: 1.72 µM
- LC50 (lethal concentration 50%) [10, 49]: 6.63 µM
- TGI ([10]; NCI-H23, five dose): 3.37 µM
- Growth percent NCI-H23 [10, 41]: −5.25%
- TGI ([11]; DU-145, five dose): 3.20 µM
- GI50 ([11]; Homo sapiens, DU-145, five dose): 1.81 µM
- CC50 ([11]; Homo sapiens, DU-145, five dose, read-out: LC50 (the source's name)): 5.66 µM
- Growth percent DU-145 ([11]; Prostate cancer, 10^−5 molar, 48 hours, SRB): −96.35%
- Growth percent SNB-19 [12, 50]: 40.06%
- GI50 ([12]; Homo sapiens, SNB-19, five dose): 1.65 µM
- TGI ([12]; SNB-19, five dose): 3.18 µM
- Growth percent MDA-MB-231/ATCC [13, 43]: −84.52%
- GI50 ([13]; Homo sapiens, MDA-MB-231/ATCC, five dose): 1.31 µM
- CC50 ([13]; Homo sapiens, MDA-MB-231/ATCC, five dose, read-out: LC50 (the source's name)): 5.35 µM
- TGI ([13]; MDA-MB-231/ATCC, five dose): 2.65 µM
- GI50 ([14]; Homo sapiens, OVCAR-5, five dose): 1.46 µM
- CC50 ([14]; Homo sapiens, OVCAR-5, five dose, read-out: LC50 (the source's name)): 5.66 µM
- TGI ([14]; OVCAR-5, five dose): 2.88 µM
- Growth percent OVCAR-5 [14, 45]: −52.16%
- GI50 ([15]; 60 cell, MDA-MB-486, five dose): 1.27 µM
- CC50 ([15]; 60 cell, MDA-MB-486, five dose, read-out: LC50 (the source's name)): 6.15 µM
- Growth percent MDA-MB-486 [15, 43]: −62.13%
- TGI ([15]; MDA-MB-486, five dose): 2.80 µM
- GI50 ([16]; 60 cell, mean over panel, five dose): 1.66 µM
- CC50 ([16]; 60 cell, mean over panel, five dose, read-out: LC50, Mean): 7.94 µM
- Growth percent, Delta ([16]; delta over the cell panel, 10^−5 molar, 48 hours, SRB): 46.49%
- TGI, Mean ([16]; mean over panel, five dose): 3.39 µM
- Growth percent, Mean ([16]; mean over the cell panel, 10^−5 molar, 48 hours, SRB): −51.89%
- Growth percent, Range ([16]; range over the cell panel, 10^−5 molar, 48 hours, SRB): 176.87%
- TGI ([17]; HOP-62, five dose): 2.92 µM
- GI50 ([17]; Homo sapiens, HOP-62, five dose): 1.47 µM
- Growth percent HOP-62 [17, 41]: −97.40%
- GI50 ([18]; Homo sapiens, OVCAR-8, five dose): 1.89 µM
- TGI ([18]; OVCAR-8, five dose): 4.12 µM
- Growth percent OVCAR-8 [18, 45]: −74.59%
- GI50 ([19]; Homo sapiens): 1.68 µM
- LC50 ([19]; Homo sapiens): 5.96 µM
- TGI [19]: 3.16 µM
- Growth percent SF-295 [20, 50]: −74.29%
- GI50 ([20]; Homo sapiens, SF-295, five dose): 1.79 µM
- TGI ([20]; SF-295, five dose): 3.63 µM
- GI50 ([21]; Homo sapiens, SR, five dose): 1.81 µM
- LC50 (50% lethal concentration) ([21]; Homo sapiens, SR, five dose): > 100 µM
- Growth percent SR [21, 44]: −51.67%
- TGI ([21]; SR, five dose): 4.30 µM
- Growth percent MCF7 (Table 2: MCF) [22, 43]: −98.38%
- GI50 ([22]; Homo sapiens, MCF7, five dose): 1.28 µM
- TGI ([22]; MCF7, five dose): 2.81 µM
- Growth percent RXF 393 [23]: −87.22%
- GI50 ([24]; Homo sapiens, K562, K-562, five dose): 1.69 µM
- CC50 ([24]; Homo sapiens, K562, K-562, five dose, read-out: LC50 (the source's name)): 7.84 µM
- TGI ([24]; K-562, five dose): 3.65 µM
- Growth percent K-562 [24, 44]: −57.17%
- Growth percent SW-620 [25, 51]: −66.88%
- GI50 [25, 52]: 1.67 µM
- LC50 [25, 52]: 7.02 µM
- TGI ([25]; SW-620, five dose): 3.42 µM
- GI50 ([26]; Homo sapiens, U-251): 1.63 µM
- LC50 ([26]; Homo sapiens, U-251): 5.78 µM
- TGI [26]: 3.07 µM
- Growth percent KM12 [27, 51]: −85.99%
- GI50 ([27]; Homo sapiens, KM12, five dose): 1.67 µM
- LC50 ([27]; Homo sapiens, KM12, five dose): 5.79 µM
- TGI ([27]; KM12, five dose): 3.11 µM
- GI50 ([28]; Homo sapiens, UACC-62, five dose): 1.67 µM
- CC50 ([28]; Homo sapiens, UACC-62, five dose, read-out: LC50 (the source's name)): 6.52 µM
- Growth percent UACC-62 [28, 48]: −96.67%
- TGI ([28]; UACC-62, five dose): 3.30 µM
- Growth percent SNB-75 [29, 50]: −43.13%
- GI50 [29, 53]: 1.09 µM
- LC50 [29, 53]: 4.9 µM
- TGI ([29]; SNB-75, five dose): 2.31 µM
- GI50 [30, 54]: 1.75 µM
- LC50 [30, 54]: 5.66 µM
- Growth percent SK-MEL-28 [30, 48]: −96.20%
- TGI ([30]; SK-MEL-28, five dose): 3.15 µM
- TGI ([31]; ACHN, five dose): 2.76 µM
- GI50 ([31]; Homo sapiens, ACHN, five dose): 1.44 µM
- CC50 ([31]; Homo sapiens, ACHN, five dose, read-out: LC50 (the source's name)): 5.29 µM
- Growth percent ACHN [31, 46]: −92.31%
- TGI ([32]; A498, five dose): 4.99 µM
- GI50 ([32]; Homo sapiens, A498, five dose): 1.45 µM
- CC50 ([32]; Homo sapiens, A498, five dose, read-out: LC50 (the source's name)): 29.2 µM
- Growth percent A498 [32, 46]: 60.29%
- Growth percent HCT-15 [33, 51]: −45.92%
- TGI ([33]; HCT-15, five dose): 3.12 µM
- GI50 [33, 55]: 1.58 µM
- LC50 [33, 55]: 6.16 µM
- Growth percent HT29 [34, 51]: −83.30%
- TGI ([34]; HT29, five dose): 3.29 µM
- GI50 [34, 56]: 1.78 µM
- LC50 (concentration killing 50% of cells) [34, 56]: 6.09 µM
- GI50 ([35]; Homo sapiens, SN12C, five dose): 1.45 µM
- Growth percent SN12C [35, 46]: −93.98%
- TGI ([35]; SN12C, five dose): 3.02 µM
- TGI ([36]; 786-0, five dose): 3.20 µM
- GI50 ([36]; Homo sapiens, 786-0, five dose): 1.76 µM
- CC50 ([36]; Homo sapiens, 786-0, five dose, read-out: LC50 (the source's name)): 5.81 µM
- Growth percent 786-0 [36, 46]: −57.40%
- Growth percent SF-268 [37, 50]: −67.65%
- GI50 ([37]; Homo sapiens, SF-268, five dose): 1.59 µM
- CC50 ([37]; Homo sapiens, SF-268, five dose, read-out: LC50 (the source's name)): 6.55 µM
- TGI ([37]; SF-268, five dose): 3.23 µM
- GI50 ([38]; Homo sapiens, NCI-H226, five dose): 1.36 µM
- TGI ([38]; NCI-H226, five dose): 2.95 µM
- Growth percent NCI-H226 [38, 41]: 28.55%
- GI50 ([39]; Homo sapiens, MDA-MB-435, five dose): 1.82 µM
- TGI ([39]; MDA-MB-435, five dose): 3.59 µM
- Growth percent MDA-MB-435 [39, 48]: −85.39%
